Measured values as given in publication PMC6320874, “Inhibitory Effect of Naphthoquinone-Tryptophan Hybrid towards Aggregation of PAP f39 Semen Amyloid” (Molecules, 2018).

Key:
PAP f39 (PAP248-286) [1] = biological target: T1, PAP f39 (PAP248-286) (Homo sapiens, UniProt P15309); test: isothermal titration calorimetry; format: binding
T1 construct: gene ACP3; synthetic 39-residue peptide fragment 248-286 (GL Biochem), N-terminal Gly, C-terminal Tyr, HFIP-pretreated monomer; 2L3H is only the docking structure of this peptide
T1 sequence (P15309 248-286): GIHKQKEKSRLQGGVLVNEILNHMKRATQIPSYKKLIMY

PAP f39 (PAP248-286) [2] = biological target: T1, PAP f39 (PAP248-286); test: ThT fluorescence aggregation assay; format: biochemical; conditions: PBS pH 7.3, 37 °C, 1200 rpm, 96 h; 0.44 mM PAP f39, 0.022 mM NQTrp; inhibition of fibril formation

Kd (PAP f39 (PAP248-286) [1]): 5.94 ± 1.26 µM
% amyloid inhibition at 20:1 (PAP f39:NQTrp) (PAP f39 (PAP248-286) [2]): ~ 70%
SMILES: O=C1C=C(N[C@@H](Cc2c[nH]c3ccccc23)C(=O)O)C(=O)c2ccccc21 [NQTrp]
